Reference: patent publication US20260297042A1, “BIARYLAMIDE DERIVATIVES AND THEIR USE AS PKMYT1 INHIBITORS” (CANCER RESEARCH TECHNOLOGY LIMITED, priority 2023, published 2026)

Assays:
[1] = biological target: T1, Human PKMYT1 (Homo sapiens, UniProt Q99640); test: PKMYT1 biochemical ADP-Glo enzymatic assay; details: ADP-Glo
T1 construct: Human PKMYT1 75-362 was cloned as a TEV cleavable 6xHis fusion; 6xHis (TEV cleavable) (cleaved yes); made in house; host or cells: bacterial cells
T1 sequence (Q99640 75-362): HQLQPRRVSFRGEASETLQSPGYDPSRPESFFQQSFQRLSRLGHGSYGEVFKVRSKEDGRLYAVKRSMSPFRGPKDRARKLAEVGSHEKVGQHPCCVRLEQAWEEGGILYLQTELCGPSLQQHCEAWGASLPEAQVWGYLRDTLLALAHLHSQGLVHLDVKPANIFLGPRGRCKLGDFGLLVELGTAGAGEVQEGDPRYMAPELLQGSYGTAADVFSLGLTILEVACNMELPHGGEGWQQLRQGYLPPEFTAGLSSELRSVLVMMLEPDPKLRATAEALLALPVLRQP
Procedure: Human PKMYT1 75-362 was cloned as a TEV cleavable 6xHis fusion in bacterial cells. After purification on a Ni++HiTrap Chelating HP column, the His-tag was cleaved using TEV protease. Cleaved PKMYT1 was further purified on a Superdex 200 16/600 sizing column. The fractions containing PKMYT1 were pooled and concentrated using an ultrafiltration centrifugal protein concentrator. The purified protein was aliquoted, flash frozen in liquid nitrogen, and stored at −80° C.
PKMYT1 biochemical assay: Inhibition of PKMYT1 was assessed using the ADP-Glo™ Max Detection System from Promega. This assay detects the production of ADP from ATP by PKMYT1 via a two-step process ultimately involving the conversion of ADP to ATP with the latter converted to light in a coupled reaction with luciferase/luciferin. Inhibition of PKMYT1 by small molecule inhibitors results in a retardation of luminescence above background. The intrinsic ATPase activity of PKMYT1 was assessed according to the following protocol. Compounds were dosed into Corning white low volume 384 well assay plates using an Echo acoustic dispenser to generate 10-point curves spanning a 3-fold dilution series. DMSO (no inhibitor) control wells were prepared to benchmark the maximum and minimum signals in the presence and absence of PKMYT1, respectively. The PKMYT1 kinase domain was purified in-house, as described above, and added to the wells at a final concentration of 15 nM in a buffer of 50 mM HEPES (pH 7.5), 10 mM MgCl2, 1 mM EGTA, 0.01% Brij-35, 1% DMSO. 500 µM ATP was added to start the reaction with the final assay volume being 4 μl. The plate was then incubated for 60 minutes at 26° C. before the addition of 4 μl of ADP-Glo Reagent to stop the reaction and deplete the unconsumed ATP. Following a further 60 minute incubation the assay signal was developed by the addition of 8 μl ADP-Glo Max Detection Reagent. After 60 minutes the luminescence signal was read on a PHERAStar FS microplate reader (BMG Labtech).
(§1) Data analysis: Data was captured and analysed within the Dotmatics Studies software module where dose response curves were generated and IC50 values determined. Acceptance and verification of data followed strict in-house business rules which are summarised as follows. […] Technical and biological replicates of each compound are routinely tested and replicate IC50 values must fall within 3-fold of each other with dose response curves showing ‘goodness of fit’ r2 values >0.9. Failure to meet any of these defined criteria result in rejection of data.

[2] = biological target: T2, WEE1 (Homo sapiens, UniProt P30291); test: Selectivity versus WEE1 assay (ADP-Glo enzymatic assay); format: biochemical; details: for IC50: ADP-Glo; for PKMYT1 vs. WEE1 selectivity: fold difference in selectivity for PKMYT1 over WEE1
T2 construct: purchased Thermo Fisher PR7373A
Procedure: Selectivity versus WEE1 assay: Selectivity was established using the same format as outlined for PKMYT1. After dosing of compounds via the Echo acoustic dispenser—as described above—WEE1 (Thermo Fisher PR7373A) was added to each well at a final concentration of 15 nM in a buffer of 50 mM HEPES (pH 7.5), 10 mM MgCl2, 1 mM EGTA, 0.01% Brij-35, 1% DMSO. 30 µM ATP was added to start the reaction with the final assay volume being 4 μl. The plate was then incubated for 60 minutes at 26° C. before the addition of 4 μl of ADP-Glo Reagent. Following a further 60 minute incubation the assay signal was developed by the addition of 8 μl ADP-Glo Detection Reagent. After 60 minutes the luminescence signal was read on a PHERAStar FS microplate reader (BMG Labtech).
as §1

[3] = PKMYT1 kinase domain 15 nM, banded values
[4] = 15 nM PKMYT1 kinase domain, 500 µM ATP, 60 minutes at 26° C., banded
[5] = 15 nM WEE1, 60 minutes at 26° C., banded
[6] = banded, ">N" = at least in this band but could be higher

T2 sequence (P30291 whole entry): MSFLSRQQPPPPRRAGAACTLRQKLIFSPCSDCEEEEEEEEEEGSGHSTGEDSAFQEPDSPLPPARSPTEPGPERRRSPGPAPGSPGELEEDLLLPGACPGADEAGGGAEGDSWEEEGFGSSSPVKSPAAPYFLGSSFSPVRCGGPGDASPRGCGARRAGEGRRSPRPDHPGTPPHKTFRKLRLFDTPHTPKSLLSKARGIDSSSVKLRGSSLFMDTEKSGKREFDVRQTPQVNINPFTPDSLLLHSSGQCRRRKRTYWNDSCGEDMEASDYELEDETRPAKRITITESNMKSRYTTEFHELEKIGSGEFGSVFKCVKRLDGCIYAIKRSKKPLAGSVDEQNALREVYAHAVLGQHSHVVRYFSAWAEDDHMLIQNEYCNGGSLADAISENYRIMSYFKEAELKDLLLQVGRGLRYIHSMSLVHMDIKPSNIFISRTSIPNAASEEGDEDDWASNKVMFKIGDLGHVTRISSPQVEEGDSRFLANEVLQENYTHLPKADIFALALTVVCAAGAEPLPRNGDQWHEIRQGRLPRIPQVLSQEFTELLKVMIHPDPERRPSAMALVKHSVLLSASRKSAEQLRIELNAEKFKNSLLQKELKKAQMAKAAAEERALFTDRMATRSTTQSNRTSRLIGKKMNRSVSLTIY

Compound	IC50 [1, 3] [nM]	IC50 ([2]; WEE1 15 nM, banded values) [nM]	PKMYT1 vs. WEE1 selectivity ([2]; banded)	IC50 [1, 4] [nM]	IC50 [2, 5] [nM]	PKMYT1 vs. WEE1 selectivity [2, 6]
Cc1ccc(O)c(C)c1NC(=O)c1cnc(Nc2cc(C#N)n(C)n2)s1 [BAA-505, 2-((5-cyano-1-methyl-1H-pyrazol-3-yl)amino)-N-(3-hydroxy-2,6-dimethylphenyl)thiazole-5-carboxamide]	50 to 1000	1000 to 11000	W (10-<100 fold)			
Cc1ccc(O)c(C)c1NC(=O)c1cnc(Nc2n[nH]c3ccccc23)s1 [BAA-455, 2-((1H-indazol-3-yl)amino)-N-(3-hydroxy-2,6-dimethylphenyl)thiazole-5-carboxamide]	50 to 1000	> 11000	X (100-<1000 fold)			
Cc1ccc(O)c(C)c1NC(=O)c1cnc(Nc2ccn([C@@H]3CCN(C(=O)Cc4ccncc4)C3)n2)s1 [BAA-104, N-(3-hydroxy-2,6-dimethyl-phenyl)-2-[1-[(3R)-1-[2-(4-pyridyl)acetyl]pyrrolidin-3-yl]pyrazol-3-ylamino]thiazole-5-carboxamide]				50 to 1000	> 11000	>X (100-<1000 fold)
Cc1cn(CC(=O)N(C)CCS(C)(=O)=O)nc1Nc1ncc(C(=O)Nc2c(C)ccc(O)c2C)s1 [BAA-522, N-(3-hydroxy-2,6-dimethylphenyl)-2-((4-methyl-1-(2-(methyl(2-(methylsulfonyl)ethyl)amino)-2-oxoethyl)-1H-pyrazol-3-yl)amino)thiazole-5-carboxamide]	< 50	1000 to 11000	X (100-<1000 fold)			
Cc1ccc(O)c(C)c1NC(=O)c1cnc(Nc2ccc(F)c(C#N)c2)s1 [BAA-282, 2-((3-cyano-4-fluorophenyl)amino)-N-(3-hydroxy-2,6-dimethylphenyl)thiazole-5-carboxamide]				1000 to 11000	> 11000	W (10-<100 fold)
COc1ccc(CC(=O)N2CCC(CNc3ncc(C(=O)Nc4c(C)ccc(O)c4C)s3)CC2)nc1 [BAA-100, N-(3-Hydroxy-2,6-dimethyl-phenyl)-2-[[1-[2-(5-methoxy-2-pyridyl)acetyl]-4-piperidyl]methylamino]thiazole-5-carboxamide]				50 to 1000	> 11000	>X (100-<1000 fold)
Cc1ccc(O)c(C)c1NC(=O)c1cnc(Nc2ccn(CC(=O)N3CCN(C4CC4)CC3)n2)s1 [BAA-182, 2-[[1-[2-(4-cyclopropylpiperazin-1-yl)-2-oxo-ethyl]pyrazol-3-yl]amino]-N-(3-hydroxy-2,6-dimethyl-phenyl)thiazole-5-carboxamide]				< 50	> 11000	Y (1000-5000 fold)
O=C(Nc1c(F)ccc(O)c1Cl)c1cnc(Nc2ccn(CC(=O)N3CCCC3)n2)s1 [BAA-482, N-(2-chloro-6-fluoro-3-hydroxyphenyl)-2-((1-(2-oxo-2-(pyrrolidin-1-yl)ethyl)-1H-pyrazol-3-yl)amino) thiazole-5-carboxamide]	< 50	> 11000	Y (1000-5000 fold)			
Cc1ccc(O)c(C)c1NC(=O)c1cnc(NCc2ccccc2)s1 [BAA-344, 2-(benzylamino)-N-(3-hydroxy-2,6-dimethylphenyl) thiazole-5-carboxamide]				50 to 1000	> 11000	Y (1000-5000 fold)
Cc1ccc(O)c(C)c1NC(=O)c1cnc(Nc2ccn(CC(=O)N3CCC4(CCNC4)CC3)n2)s1 [BAA-225, N-(3-hydroxy-2,6-dimethylphenyl)-2-((1-(2-oxo-2-(2,8-diazaspiro[4.5]decan-8-yl)ethyl)-1H-pyrazol-3-yl)amino)thiazole-5-carboxamide]				< 50	> 11000	X (100-<1000 fold)
Cc1ccc(O)c(C)c1NC(=O)c1cnc(Nc2ccn(CC(=O)N3CCNC(=O)C3)n2)s1 [BAA-150]				< 50	> 11000	X (100-<1000 fold)
Cc1ccc(O)c(C)c1NC(=O)c1cnc(Nc2noc(C)c2C)s1 [BAA-439, 2-((4,5-dimethylisoxazol-3-yl)amino)-N-(3-hydroxy-2,6-dimethylphenyl)thiazole-5-carboxamide]	< 50	1000 to 11000	X (100-<1000 fold)			
Cc1ccc(O)c(C)c1NC(=O)c1cnc(Nc2ccn(CC(=O)N3C[C@@H]4C[C@H]3CN4C)n2)s1 [BAA-172]				< 50	> 11000	X (100-<1000 fold)
Cc1ccc(O)c(C)c1NC(=O)c1cnc(Nc2ccn([C@@H]3CCN(C(=O)Cc4ccc(F)cc4)C3)n2)s1 [BAA-093]				50 to 1000	> 11000	>X (100-<1000 fold)
Cc1ccc(O)c(C)c1NC(=O)c1cnc(NCC2CC2)s1 [BAA-347]				50 to 1000	> 11000	X (100-<1000 fold)
Cc1ccc(O)c(C)c1NC(=O)c1cnc(Nc2ccn(CC(=O)N3CC(F)(F)C3)n2)s1 [BAA-196]				< 50	> 11000	Y (1000-5000 fold)
CCNC(=O)N1CC[C@@H](n2ccc(Nc3ncc(C(=O)Nc4c(C)ccc(O)c4C)s3)n2)C1 [BAA-109, 2-[[1-[(3R)-1-(Ethylcarbamoyl)pyrrolidin-3-yl]pyrazol-3-yl]amino]-N-(3-hydroxy-2,6-dimethyl-phenyl)thiazole-5-carboxamide]				50 to 1000	> 11000	>X (100-<1000 fold)
Cc1ccc(O)c(C)c1NC(=O)c1cnc(Nc2ccn(CC(=O)N3CCN(C4CCCCC4)CC3)n2)s1 [BAA-187]				< 50	> 11000	Y (1000-5000 fold)
Cc1cc(Nc2ncc(C(=O)Nc3c(C)ccc(O)c3C)s2)n(CCC(N)=O)n1 [BAA-240, 2-((1-(3-amino-3-oxopropyl)-3-methyl-1H-pyrazol-5-yl)amino)-N-(3-hydroxy-2,6-dimethylphenyl) thiazole-5-carboxamide]				50 to 1000	> 11000	X (100-<1000 fold)
Cc1cn(CC(=O)N(C)CC(F)(F)F)nc1Nc1ncc(C(=O)Nc2c(C)ccc(O)c2C)s1 [BAA-514, N-(3-hydroxy-2,6-dimethylphenyl)-2-((4-methyl-1-(2-(methyl(2,2,2-trifluoroethyl)amino)-2-oxoethyl)-1H-pyrazol-3-yl)amino)thiazole-5-carboxamide]	< 50	1000 to 11000	X (100-<1000 fold)			
Cc1ccc(O)c(C)c1NC(=O)c1cnc(Nc2ccc(C(F)(F)F)cc2)s1 [BAA-278, N-(3-hydroxy-2,6-dimethylphenyl)-2-((4-(trifluoromethyl)phenyl)amino)thiazole-5-carboxamide]				1000 to 11000	> 11000	W (10-<100 fold)
Cc1ccc(O)c(C)c1NC(=O)c1cnc(Nc2ncccc2Cl)s1 [BAA-400, 2-((3-chloropyridin-2-yl)amino)-N-(3-hydroxy-2,6-dimethylphenyl)thiazole-5-carboxamide]	< 50	1000 to 11000	X (100-<1000 fold)			
